According to US6177441A, “Treating red blood cell solutions with anti-viral agents” (Cerus Corporation, priority 1998, dated 2001):
Where a name gives a salt, the structure may show the parent alone.

What was measured:
red blood cells [1] = test system: red blood cells
R17 [2] = type: cell-based, bacteriophage R17
R17 [3] = assay: R17 inactivation by Compound 1 in packed red blood cells (Example 2); type: cell-based, bacteriophage R17
Method: Another experiment was performed to test the inactivation ability of a novel compound, Compound 1. A 1:1000 dilution of R17 (stock titer was 11.9 logs) was prepared in 25 ml packed red blood cells. To each of 5 tubes was added 5 ml of this R17-packed red blood cell solution. Compound 1 was then dissolved in saline to a final concentration of 3 mg/ml. The compound in solution was added to the […] as follows: the first tube, the control tube, received saline only; the second tube received 10 μg/ml of Compound 1 in saline; the third tube received 30 μg/ml of Compound 1 in saline; the forth tube received 100 μg/ml Compound 1 in saline and the final tube received 300 μg/ml of Compound 1 in saline. The tubes were mixed and then incubated at 4° C. overnight. […] Concentrations above 30 μg/ml inactivated approximately 4 logs of R17 with a starting titer of 10 logs of R17.

red blood cells [4] = conditions: mouse, in vivo
cell-free HIV = assay: microbe, parasite or virus in culture; type: cell-based; conditions: Human immunodeficiency virus 1, Erythrocyte, 100 min
cell-associated HIV = assay: microbe, parasite or virus in culture; type: cell-based, HIVIIIB; conditions: Human immunodeficiency virus 1, Erythrocyte
red blood cells [5] = conditions: mouse, in vivo; remark: listed apart in the source
R17 [6] = assay: Kinetics of R17 inactivation by QM with NAC quench (Example 3); conditions: for Log Titer: NAC/no QM, no NAC/no QM 8.80
red cells = conditions: photo treatment; cited from earlier work
R17 [7] = test system: R17

Structure (SMILES): O=C(O)CCCc1ccc(N(CCCl)CCCl)cc1 [Chlorambucil, chlorambucil]
- IgG binding of red cells (red blood cells [1]): did not alter
- R17 inactivation (R17 [2]): ≤ 0.4 logs
- R17 inactivation (words) (R17 [2]): little or no inactivation

Structure (SMILES): COc1c2occc2c(CN(CCCl)CCCl)c2ccc(=O)oc12 [Compound 1, 5-[N,N-bis(2-chloroethyl)amino]methyl-8-methoxypsoralen hydrochloride]
- R17 inactivation activity (R17 [3]; 10-300 μg/ml in packed red blood cells): showed R17 inactivation activity
- R17 inactivated (R17 [3]; concentrations above 30 μg/ml, 4° C. overnight, starting titer 10 logs): approximately 4 logs

Structure (SMILES): CCN(CCCl)CCCNc1c2ccc(Cl)cc2nc2ccc(OC)cc12.Cl.Cl [ICR-170, N-(2-chloroethyl)-N-ethyl-N'-(6-chloro-2-methoxy-9-acridinyl)-1,3-propanediamine dihydrochloride]
- LOSS PER DAY (red blood cells [4]): 2.71%
- RECOVERY (red blood cells [4]): 86.0 ± 6.6
- log reduction at 10 µg/mL (cell-free HIV): 0.6
- log reduction at 20 µg/mL (cell-free HIV): 1.3
- log reduction at 40 µg/mL (cell-free HIV): 2.3
- log reduction at 80 µg/mL (cell-free HIV): 4
- log reduction at 10 µg/mL (cell-associated HIV): 0.5
- log reduction at 20 µg/mL (cell-associated HIV): 1.2
- log reduction at 40 µg/mL (cell-associated HIV): 2
- log reduction at 80 µg/mL (cell-associated HIV): 2
- % RECOVERY, HIGH (red blood cells [5]): 90.4
- % RECOVERY, LOW (red blood cells [5]): 93.1

Structure (SMILES): CC(=O)N[C@@H](CS)C(=O)O [NAC, N-acetyl-cysteine]
- R17 kill by NAC alone (R17 [6]): does not kill R17
- protection against QM inactivation (R17 [6]; NAC added before QM): substantial, but not complete protection against QM inactivation
- Log Titer (R17 [6]; dilute at end): 8.35
- Log Titer (R17 [6]; dilute): 8.73
- quenching of QM activity (R17 [6]; combination of NAC and dilution): almost complete quenching of QM activity

Structure (SMILES): CN(C)c1ccc2nc3ccc(=[N+](C)C)cc-3sc2c1 [methylene blue]
- ATP of photo treated red cells (red cells): loss of ATP
- IgG binding of photo treated red cells (red cells): binding of autologous immunoglobulin (IgG) to the red cell surface
- ion permeability of photo treated red cells (red cells): enhanced ion permeability

Structure (SMILES): CCN(CC)CCCC(C)Nc1c2ccc(Cl)cc2nc2ccc(OC)cc12 (centres unmarked) [quinacrine]
- light-dependent kill of R17 (R17 [7]): no light-dependent kill
